According to patent US20240352066A1, “ANTIMICROBIAL COMPOUNDS AND THE METHOD OF USE” (priority 2021, published 2024):
Converted amounts (≈) assume the structure as drawn. Like-named read-outs stand apart in the source and are kept apart here. Where a SMILES comes first, the peptide text is derived from it. [ ]: non-standard residue; d: D form. The star is where a group is joined. Gly(N(CH2)2(3-indolyl)) = O=C(O)CNCCc1c[nH]c2ccccc12; Gly(Nα-4-Cl-benzyl) = O=C(O)CNCc1ccc(Cl)cc1; N(4-Br-benzyl)Gly = O=C(O)CNCc1ccc(Br)cc1; N(2-thienylmethyl)Gly = O=C(O)CNCc1cccs1; N(tridecyl)Gly = CCCCCCCCCCCCCNCC(=O)O; NBzl(4-I)Gly = O=C(O)CNCc1ccc(I)cc1; Gly(N-2-aminoethyl) = NCCNCC(=O)O; NFurfurylGly = O=C(O)CNCc1ccco1; X2 = CCCCCCCCN(CCCCCCCC)CC(=O)*; Gly(N-cHex) = O=C(O)CNC1CCCCC1; X1 = CCCCCCN(CCCCCC)CC(=O)*; Nphe = O=C(O)CNCc1ccccc1; Nlys = NCCCCNCC(=O)O; Sar = CNCC(=O)O

Tests used:
C. neoformans [1] = format: cell-based, Cryptococcus neoformans; conditions: 72 h
Method: The minimum inhibitory concentration (MIC) of peptoids against fungal pathogens C. albicans and C. neoformans was determined following CLSI guidelines (CLSI. Reference method for broth dilution antifungal susceptibility testing of yeasts; approved standard-third edition; CLSI document M27-A3. (Clinical and Laboratory Standards Institute, 2008). […] This inoculant was diluted 1:100 into RPMI-MOPS and then further diluted 1:20 into RPMI-MOPS. 198 μL of inoculant was seeded into each well of a 96 well black-walled plate. 2-fold serial dilutions of 100× peptoid solutions were prepared in water and 2 μL of peptoid were added to each well in triplicate. […] MIC was defined as the lowest concentration of compound preventing fungal growth. This assay was repeated 3 times on separate days with each compound. […] The addition of 0.1 mL cell solution to 9.9 mL of RPMI-MOPS produced a 1:100 cell solution. After vortexing, 0.5 mL of the […] was added to 9.5 mL RPMI-MOPS to produce a 1:20 cell solution. 198 μL of the 1:20 solution was added to the wells of an opaque 96-well plate, apart from the wells designated for the medial control. […] Amphotericin B was used as a positive control, and sterile water was used for the vehicle control. The plates were incubated for 72 hours at 35° C. After incubation, the concentration of compound resulting in no visual growth was recorded as the MIC. All assays performed in biological triplicate on different days.

[2] = Mammalian cytotoxicity, MTT, HepG2; format: cell-based, human; conditions: human, HepG2 hepatocellular carcinoma cells
Method: Hepatocellular carcinoma (HepG2), mouse fibroblast (3T3), human lung (HPL1A), and human keratinocyte (HaCat) cells were cultured in Dulbecco modified eagle media (DMEM) containing 10% fetal bovine serum (FBS) and 1% penicillin, streptomycin, and glutamine (PSG) at 37° C. and 5% CO2. Cells were collected and adjusted to […] to 4×10^5 cells/mL in phenol-red free DMEM and plated (100 μL) 96 well plates. 2-fold serial dilutions of 10× peptoid (11.1 μL) were added to each well in triplicate. Water (vehicle) was used as a negative control. Plates were incubated at 37° C. in 5% CO2 for 72 hours. Thiazolyl blue tetrazolium bromide (MTT) was added to each well (5 mg/mL; 20 μL) and incubated for 3 hours. Media was removed, DMSO (100 μL) was added, and plates were incubated at 37° C. for 10 minutes. Plates were read on a SpectraMax M5 plate reader (Abs. 570 nm). The concentration of compound resulting in a 50% reduction in growth compared to control (toxicity dose 50%; TD50) was determined using GraFit. This procedure was repeated three times on separate days.
Cytotoxicity against HepG2 hepatocellular carcinoma cells was done as previously described (Green et al. ACS infectious diseases, (2022); Corson et al. ACS medicinal chemistry letters 7 12, 1139-1144 (2016)). HepG2 cells were maintained in culture in T-75 flasks using Dulbecco's Modified Eagle's Media (DMEM) with phenol red pH indicator and supplemented with 10% fetal bovine serum (FBS) and 1% penicillin, streptomycin, and glutamine (PSG). The cells were incubated at 37° C. and 5% CO2 in a humidified incubator until desired confluency was achieved. The media was removed from the flask, and the cells were washed 1× with 10 mL of phosphate-buffered saline (PBS; 11.8 mM phosphate, 140.4 mM NaCl; pH 7.4) which was then discarded. To remove the adhered cells from the flask, 2 mL of trypsin was added, and the cells were incubated for 10 minutes. To quench the trypsin, 8 mL of phenol red-free DMEM with 10% FBS and 1% PGS was added, and the cell solution was transferred to a 15 mL conical tube. After the cells were pelleted by centrifugation at 1000 rpm for 5 minutes, the supernatant was poured off and cells resuspended in the volume of phenol red-free media needed for the assay. Cell concentration was determined by counting with a hemocytometer, and the solution was diluted with media until a concentration of 1×10^5 cells/mL was achieved. A 100 μL aliquot of cell solution was added to each well of a 96-well plate, apart from the 3 wells used for a media control. Cells were incubated for 2-3 hours at 37° C. and 5% CO2 until cells were adherent.
Compound stocks of 20 mg/mL were used to prepare 2-fold serial dilutions of each compound in sterile water, giving final concentrations of 200, 100, 50, 25, 12.5, 6.25, 3.13 and 1.56 μg/mL. 11.1 μL of prepared compound solutions was added to the appropriate wells in triplicate. A negative vehicle control of sterile water, as well as the aforementioned media control, were used. The plates were incubated for 72 hours at 37° C. and 5% CO2. After incubation, 20 μL of 5 mg/mL 3-(4,5-dimethylthiazol-2-yl)-2,5-diphenyltetrazolium bromide (MTT) in water was added to each well. The plate was incubated for 3 hours at 37° C. and 5% CO2. Media was removed from each well using a sterile glass Pasteur pipette. 100 μL of DMSO was added to each well and incubated for 15 minutes at 37° C. Absorbance was read at 570 nm using a SpectraMax M5 Plate Reader. This MTT assay was performed in biological duplicate unless discrepant results were observed. If this was the case, the assay was performed in biological triplicate for further verification. The reported value is the average of biological replicates with standard deviation.

C. neoformans [3] = experiment: microbe, parasite or virus in culture; format: cell-based, Cryptococcus neoformans; conditions: for MIC: Cryptococcus neoformans, checkerboard, 72 hours at 35° C., read-out: MIC (compound alone); for interpretation of combination with RMG8-8: FICi<0.5 synergistic, 0.5≤FICi≤4 indifferent, FICi>4 antagonist; for Combination MIC RMG8-8:Drug, RMG8-8 part: RMG8-8 concentration in combination with the named drug; for Combination MIC RMG8-8:Drug, Drug part: drug concentration in combination with RMG8-8; for FICi: named drug in combination with RMG8-8
Method: Cell solution was diluted into RPMI-MOPS (1:100) followed by another dilution into RPMI-MOPS (1:20). […] Plates were incubated for 72 hours at 35° C. MIC was determined as the lowest concentration of individual compound or combined compounds inhibiting pathogen growth. Fractional inhibitory concentration index (FICi) was determine using the following equation: FICi values were interpreted as follows: FICi<0.5 synergistic; 0.5≤FICi≤4 indifferent; FICi>4 antagonist (Johnson et al., Antimicrob. Agents Chemother. 48, 693-715 (2004)).

Compound	C. neoformans MIC (C. neoformans [1])	CC50 at 72 h [2]	further results
CCCCCCCCCCCCCNCC(=O)N(CC(=O)N(CCCCN)CC(=O)N(CCN)CC(=O)N(CC(N)=O)c1ccc2c(c1)CCC2)c1ccc2c(c1)CCC2 [Compound 22]	1.56 to 3.13 µg/mL	91 ± 4 µg/mL (≈ 109 µM)	–
CCCCCCN(CCCCCC)CC(=O)N(CC(=O)N(CCCCN)CC(=O)N(CCN)CC(=O)N(CC(N)=O)C1CCCCC1)C1CCCCC1 [Compound 6] (X1-[Gly(N-cHex)][Nlys][Gly(N-2-aminoethyl)][Gly(N-cHex)]-NH2)	100 µg/mL	–	CC50 at 72 h ([2]; Example 2, 72 hours, MTT, read-out: HepG2 TD50): > 200 µg/mL
CCCCCCCCCCCCCNCC(=O)N(CC(=O)N(CCCCN)CC(=O)N(CCN)CC(=O)N(C)CC(N)=O)C1CCCCC1 [Position 5] (H-[N(tridecyl)Gly][Gly(N-cHex)][Nlys][Gly(N-2-aminoethyl)][Sar]-NH2)	–	> 200 µg/mL	MIC C. neoformans (C. neoformans [1]): 6.25 µg/mL (≈ 8.99 µM)
CCCCCCCCCCCCCNCC(=O)N(CC(=O)N(CCCCN)CC(=O)N(CCCCN)CC(=O)N(CC(N)=O)C1CCCCC1)C1CCCCC1 [Compound 2] (H-[N(tridecyl)Gly][Gly(N-cHex)][Nlys][Nlys][Gly(N-cHex)]-NH2)	3.13 µg/mL	165 ± 97 µg/mL (≈ 208 µM)	–
Nc1[nH]c(=O)ncc1F [Flucytosine]	–	–	MIC (C. neoformans [3]): 2 µg/mL; interpretation of combination with RMG8-8 (C. neoformans [3]): indifferent; Combination MIC RMG8-8:Drug, RMG8-8 part (C. neoformans [3]): 1.56 µg/mL; Combination MIC RMG8-8:Drug, Drug part (C. neoformans [3]): 2 µg/mL; FICi (C. neoformans [3]): 2
CCCCCCCCCCCCCNCC(=O)N(C)CC(=O)N(CCCCN)CC(=O)N(CCN)CC(=O)N(CC(N)=O)C1CCCCC1 [Position 2] (H-[N(tridecyl)Gly][Sar][Nlys][Gly(N-2-aminoethyl)][Gly(N-cHex)]-NH2)	–	> 200 µg/mL	MIC C. neoformans (C. neoformans [1]): 6.25 µg/mL (≈ 8.99 µM)
CCCCCCCCCCCCCNCC(=O)N(CC(=O)N(C)CC(=O)N(CCN)CC(=O)N(CC(N)=O)C1CCCCC1)C1CCCCC1 [Position 3]	–	83 µg/mL (≈ 118 µM)	MIC C. neoformans (C. neoformans [1]): 3.13 µg/mL (≈ 4.43 µM)
OC(Cn1cncn1)(Cn1cncn1)c1ccc(F)cc1F [Fluconazole]	–	–	MIC (C. neoformans [3]): 2 µg/mL; interpretation of combination with RMG8-8 (C. neoformans [3]): indifferent; Combination MIC RMG8-8:Drug, RMG8-8 part (C. neoformans [3]): 1.56 µg/mL; Combination MIC RMG8-8:Drug, Drug part (C. neoformans [3]): 2 µg/mL; FICi (C. neoformans [3]): 2
CNCC(=O)N(CC(=O)N(CCCCN)CC(=O)N(CCN)CC(=O)N(CC(N)=O)C1CCCCC1)C1CCCCC1 [Position 1] (H-[Sar][Gly(N-cHex)][Nlys][Gly(N-2-aminoethyl)][Gly(N-cHex)]-NH2)	–	> 200 µg/mL	MIC C. neoformans (C. neoformans [1]): >50.00 µg/mL
CCCCCCCCN(CCCCCCCC)CC(=O)N(CC(=O)N(CCCCN)CC(=O)N(CCN)CC(=O)N(CC(N)=O)C1CCCCC1)C1CCCCC1 [Compound 7] (X2-[Gly(N-cHex)][Nlys][Gly(N-2-aminoethyl)][Gly(N-cHex)]-NH2)	6.25 µg/mL	162 ± 29 µg/mL (≈ 201 µM)	–
CCCCCCCCCCCCCNCC(=O)N(CC(=O)N(CCCCN)CC(=O)N(C)CC(=O)N(CC(N)=O)C1CCCCC1)C1CCCCC1 [Position 4] (H-[N(tridecyl)Gly][Gly(N-cHex)][Nlys][Sar][Gly(N-cHex)]-NH2)	–	84 µg/mL (≈ 114 µM)	MIC C. neoformans (C. neoformans [1]): 3.13 µg/mL (≈ 4.26 µM)

Second part, led by results:

C. neoformans MIC (C. neoformans [1])	Compound	CC50 at 72 h [2]	further results
3.13 µg/mL	CCCCCCCCCCCCCNCC(=O)N(CC(=O)N(CCCCN)CC(=O)N(CCN)CC(=O)N(CC(N)=O)Cc1ccc(Br)cc1)Cc1ccc(Br)cc1 [Compound 19] (H-[N(tridecyl)Gly][N(4-Br-benzyl)Gly][Nlys][Gly(N-2-aminoethyl)][N(4-Br-benzyl)Gly]-NH2)	72.4 ± 20 µg/mL (≈ 77.3 µM)	–
1.56 to 3.13 µg/mL	CCCCCCCCCCCCCNCC(=O)N(CC(=O)N(CCCCN)CC(=O)N(CCN)CC(=O)N(CC(N)=O)Cc1ccccc1)Cc1ccccc1 [Compound 15] (H-[N(tridecyl)Gly][Nphe][Nlys][Gly(N-2-aminoethyl)][Nphe]-NH2)	145 ± 96 µg/mL (≈ 186 µM)	–
3.13 to 6.25 µg/mL	CCCCCCCCCCCCCNCC(=O)N(CC(=O)N(CCCCN)CC(=O)N(CCN)CC(=O)N(CC(N)=O)Cc1ccco1)Cc1ccco1 [Compound 24] (H-[N(tridecyl)Gly][NFurfurylGly][Nlys][Gly(N-2-aminoethyl)][NFurfurylGly]-NH2)	143 ± 94 µg/mL (≈ 188 µM)	–
1.56 to 3.13 µg/mL	CCCCCCCCCCCCCNCC(=O)N(CC(=O)N(CCCCN)CC(=O)N(CCN)CC(=O)N(CC(N)=O)Cc1cccs1)Cc1cccs1 [Compound 25] (H-[N(tridecyl)Gly][N(2-thienylmethyl)Gly][Nlys][Gly(N-2-aminoethyl)][N(2-thienylmethyl)Gly]-NH2)	154 ± 47 µg/mL (≈ 195 µM)	–
1.56 to 3.13 µg/mL	CCCCCCCCCCCCCNCC(=O)N(CCc1c[nH]c2ccccc12)CC(=O)N(CCCCN)CC(=O)N(CCN)CC(=O)N(CCc1c[nH]c2ccccc12)CC(N)=O [Compound 23] (H-[N(tridecyl)Gly][Gly(N(CH2)2(3-indolyl))][Nlys][Gly(N-2-aminoethyl)][Gly(N(CH2)2(3-indolyl))]-NH2)	85 ± 10 µg/mL (≈ 96 µM)	–
6.25 µg/mL	CCCCCCCCCCCCCNCC(=O)N(CC(=O)N(CCCCN)CC(=O)N(CCN)CC(=O)N(CC(N)=O)Cc1ccc(I)cc1)Cc1ccc(I)cc1 [Compound 20] (H-[N(tridecyl)Gly][NBzl(4-I)Gly][Nlys][Gly(N-2-aminoethyl)][NBzl(4-I)Gly]-NH2)	72.2 ± 24 µg/mL (≈ 70 µM)	–
6.25 µg/mL	CCCCCCCCCCCCCNCC(=O)N(CC(=O)N(CCCCN)CC(=O)N(CCN)CC(=O)N(CC(N)=O)c1cccc2ccccc12)c1cccc2ccccc12 [Compound 21]	118 ± 19 µg/mL (≈ 139 µM)	–
3.13 µg/mL	CCCCCCCCCCCCCNCC(=O)N(CC(=O)N(CCCCN)CC(=O)N(CCN)CC(=O)N(CC(N)=O)Cc1ccc(Cl)cc1)Cc1ccc(Cl)cc1 [Compound 18] (H-[N(tridecyl)Gly][Gly(Nα-4-Cl-benzyl)][Nlys][Gly(N-2-aminoethyl)][Gly(Nα-4-Cl-benzyl)]-NH2)	71.8 ± 24 µg/mL (≈ 84.7 µM)	–
